This is an account of results in patent publication US11345710B2, “Imidazo[1,2-b]pyrimido[4,5-d]pyridazin-5(6H)-ones and the use thereof” (IMPACT THERAPEUTICS (SHANGHAI), INC, priority 2017, dated 2022).

One assay has as its system LoVo cells. The assay can be described thus: MTT based cell viability assay on LoVo cells. To be noted: Homo sapiens, 72 h, read-out: IC50, growth inhibition on LoVo cells. How it is done:
Determination of the Cell Growth Inhibiting Activity of 6-(2,6-dichlorophenyl)-2-((4-(4-methylpiperazin-1-yl)phenyl)amino)imidazo[1,2-b]pyrimido[4,5-d]pyridazin-5(6H)-one and Analogs Thereof on LoVo Cells Using a MTT Based Cell Viability Assay
The thawed LoVo cells were cultured and passaged to the third generation, and the growth state was good and the confluence was about 90%, which began to be used in the experiment. The LoVo cells were digested with trypsin, centrifuged at 800 rpm for 5 min, the supernatant was discarded, resuspended with fresh culture medium, and counted. 6000 Cells are seeded to each well of a 96-well cell culture plate. The cells were incubated at 37° C. in a 5% CO2 cell culture incubator overnight. The tested sample (including the tested compound and the reference compound AZD1775) was diluted continuously to 8 concentrations (the last concentration was negative control of DMSO) with a 1:3 and 1:10 dilution in DMSO respectively: 10 μM, 3.3 μM, 1 μM, 0.33 μM, 0.1 μM, 0.033 μM, 0.01 μM, 0 μM (the final concentration of DMSO was 1%). 5 μL of each concentration was added to 120 μL of culture medium (25 times diluted), and the mixture was shaken well. The overnight cells were taken and the culture medium was removed, 195 μL of fresh culture medium was added to each well, and 5 μL of diluted culture medium containing the corresponding concentration of the tested sample was added respectively, and the culture plate was then placed in the 5% CO2 cell culture incubator at 37° C. for 3 d. After removing the original solution and adding 100 μL of fresh serum-free DMEM culture medium containing MTT (0.5 mg/mL) per well, the culture was continued. The original solution was removed after 4 hrs and 100 μl DMSO was added to each well. The 96-well cell culture plates were shaken away from light for 10 min and readed in a multifunctional reader at 552/630/690 nm to give absorption values (OD values). The data were analyzed using a graphic software (Graph Pad Prism 5.0) and the inhibitory activity of the compound on cell proliferation was plotted in terms of cell survival and compound concentration. The IC50 values were fitted by the S-shaped dose-response curve equation as follows: Y=100/(1+10^(Log C−Log IC50)), where C was the concentration of testing compounds.

A further assay concerns NCI-H1299 cells. The assay can be described thus: MTT based cell viability assay on NCI-H1299 cells. The settings on record: Homo sapiens, read-out: IC50, growth inhibition on NCI-H1299 cells. How it is done: Determination of the Cell Growth Inhibiting Activity of 6-(2,6-dichlorophenyl)-2-((4-(4-methylpiperazin-1-yl)phenyl)amino)imidazo[1,2-b]pyrimido[4,5-d]pyridazin-5(6H)-one and Analogs on NCI-H1299 Cells Using a MTT Based Cell Viability Assay
The thawed NCI-H1299 cells were cultured and passaged to the third generation, and the growth state was good and the confluence was about 90%, which began to be used in the experiment. The NCI-H1299 cells were digested with trypsin, centrifuged at 800 rpm for 5 min, the supernatant was discarded, resuspended with fresh culture medium, and counted. 1000 Cells are seeded to each well of a 96-well plate. The cells are incubated at 37° C. in a 5% CO2 cell culture incubator overnight. The tested sample (including the tested compound and the reference compound AZD1775) was diluted continuously to 8 concentrations (the last concentration was negative control of DMSO) with a 1:3 and 1:10 dilution in DMSO respectively: 10 μM, 3.3 μM, 1 μM, 0.33 μM, 0.1 μM, 0.033 μM, 0.01 μM, 0 μM (the final concentration of DMSO was 1%). 5 μL of each concentration was added to 120 μL of culture medium (25 times diluted), and the mixture was shaken well. The overnight cells were taken and the culture medium was removed, 195 μL of fresh culture medium was added to each well, and 5 μL of diluted culture medium containing the corresponding concentration of the tested sample was added respectively, and the culture plate was then placed in the 5% CO2 cell culture incubator at 37° C. for 3 d. After removing the original solution and adding 100 μL of fresh serum-free DMEM culture medium containing MTT (0.5 mg/mL) per well, the culture was continued. The original solution was removed after 4 hrs and 100 μl DMSO was added to each well. The 96-well cell culture plates were shaken away from light for 10 min and readed in a multifunctional reader at 552/630/690 nm to give absorption values (OD values). The data were analyzed using a graphic software (Graph Pad Prism 5.0) and the inhibitory activity of the compound on cell proliferation was plotted in terms of cell survival and compound concentration. The IC50 values were fitted by the S-shaped dose-response curve equation as follows: Y=100/(1+10^(Log C−Log IC50)), where C was the concentration of testing compounds.

For another assay, the target named is Wee1 kinase (h) (Homo sapiens, UniProt P30291). The assay can be described thus: Wee1 kinase (h) detection method, [γ-33P]-ATP filter assay. The format is biochemical. To be noted: 10 μM ATP, 40 minutes at room temperature. On the procedure:
Wee1 kinase (h) was incubated with 20 mM Tris/HCl pH 8.5, 0.2 mM EDTA, 500 μM […], 10 mM MgAcetate and 10 μM [γ-^33P]-ATP. Then the stock solution of all compounds under test with 50× concentration in 100% DMSO was added to make the final concentration of 1/0.1/0.01 μM, and then mixed the mixture well. The reaction was initiated by the addition of the Mg/ATP mix. After incubation for 40 minutes at room temperature, the reaction was stopped by the addition of phosphoric acid to a concentration of 0.5%. 10 μL of the reaction liquor was then spotted onto a P30 filtermat and washed four times in 0.425% phosphoric acid and once in methanol prior to drying and scintillation counting. Each compound sample was duplicated in duplicate. The negative control was lack of all the components of Wee1 enzyme, and the positive was addition of 30% phosphoric acid to terminate the reaction. The Wee1 inhibitor AZD1775 was detected at 10/0.01 μM at the same experiment condition.

[1] abbreviates: 72 h, NCI-H1299 cells, 3 d, MTT.

Usually IC50 stands for the point on the concentration scale where inhibition reaches its midpoint.

Like-named read-outs stand apart in the source and are kept apart here.

Sequence of Wee1 kinase (h) (P30291 whole entry): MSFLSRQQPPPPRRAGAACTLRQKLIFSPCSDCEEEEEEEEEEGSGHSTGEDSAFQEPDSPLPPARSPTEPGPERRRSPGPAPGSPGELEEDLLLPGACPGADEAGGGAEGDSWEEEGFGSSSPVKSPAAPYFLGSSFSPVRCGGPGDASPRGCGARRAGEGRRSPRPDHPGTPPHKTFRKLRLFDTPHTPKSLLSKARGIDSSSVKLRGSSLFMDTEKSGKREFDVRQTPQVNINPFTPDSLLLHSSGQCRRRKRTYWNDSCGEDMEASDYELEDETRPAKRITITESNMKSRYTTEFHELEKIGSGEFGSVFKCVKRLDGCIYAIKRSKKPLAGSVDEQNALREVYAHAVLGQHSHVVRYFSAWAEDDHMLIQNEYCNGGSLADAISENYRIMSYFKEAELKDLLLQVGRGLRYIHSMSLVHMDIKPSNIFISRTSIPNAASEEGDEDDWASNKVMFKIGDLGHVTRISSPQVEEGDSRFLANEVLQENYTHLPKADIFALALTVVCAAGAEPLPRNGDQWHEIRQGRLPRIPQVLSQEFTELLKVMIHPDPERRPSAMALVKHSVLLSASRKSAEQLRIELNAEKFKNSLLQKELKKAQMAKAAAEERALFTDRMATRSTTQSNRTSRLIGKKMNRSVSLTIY

Consider `Cc1cc(Nc2ncc3c(=O)n(-c4c(Cl)cccc4Cl)n4ccnc4c3n2)ccc1N1CCC(N(C)C)CC1` [Example 36, 6-(2,6-dichlorophenyl)-2-((3-methyl-4-(4-(dimethylamino)piperidin-1-yl)phenyl)amino)imidazo[1,2-b]pyrimido[4,5-d]pyridazin-5(6H)-one], for which the concentration for half-maximal inhibition (IC50) in the assay on LoVo cells (LoVo) came out at 206 nM; with NCI-H1299 cells (NCI-H1299, 72 h), 135 nM. Moreover, the entries for the “Inh. (%) of Wee1 kinase” value at Wee1 kinase (h) (C 0.01 μm) and on Wee1 kinase (h) (C 1 μm) were 22% and 98%, respectively.
As to `Cc1cc(Nc2ncc3c(=O)n(-c4c(C)cccc4Cl)n4ccnc4c3n2)cc(F)c1N1CCN(C)CC1` [Example 54, 6-(2-chloro-6-methylphenyl)-2-((3-fluoro-5-methyl-4-(4-methylpiperazin-1-yl)phenyl)amino)imidazo[1,2-b]pyrimido[4,5-d]pyridazin-5(6H)-one], the IC50 with LoVo cells (LoVo cells, 3 d, MTT) came to 637 nM; in the assay on NCI-H1299 cells (setting [1]), 419 nM. On Wee1 kinase (h) (C 1 μm), the “Inh. (%) of Wee1 kinase” value worked out at 91%.
For the compound `CN(C)C1CCN(c2ccc(Nc3ncc4c(=O)n(-c5c(Cl)cccc5Cl)n5ccnc5c4n3)cc2Cl)CC1` [Example 35, 6-(2,6-dichlorophenyl)-2-((3-chloro-4-(4-(dimethylamino)piperidin-1-yl)phenyl)amino)imidazo[1,2-b]pyrimido[4,5-d]pyridazin-5(6H)-one], the half-maximal inhibitory concentration (IC50) worked out at 302 nM with LoVo cells (LoVo) and 182 nM with NCI-H1299 cells (NCI-H1299, 72 h). Further, the “Inh. (%) of Wee1 kinase” value on Wee1 kinase (h) (C 0.01 μm) is on record as 4%; at Wee1 kinase (h) (C 1 μm) it was 96%.
On to `Cc1cc(Nc2ncc3c(=O)n(-c4c(Cl)cccc4Br)n4ccnc4c3n2)ccc1N1CCN(C)CC1` [Example 46, 6-(2-bromo-6-chlorophenyl)-2-((3-methyl-4-(4-methylpiperazin-1-yl)phenyl)amino)imidazo[1,2-b]pyrimido[4,5-d]pyridazin-5(6H)-one], for which the half-maximal inhibitory concentration (IC50) with LoVo cells (LoVo cells, 3 d, MTT) was 242 nM; with NCI-H1299 cells (setting [1]), 271 nM. The “Inh. (%) of Wee1 kinase” value on Wee1 kinase (h) (C 0.01 μm) came to 17%; on Wee1 kinase (h) (C 1 μm), 92%.
Take `CCc1cn2c(n1)c1nc(Nc3ccc(N4CCC(N(C)C)CC4)c(C)c3)ncc1c(=O)n2-c1c(Cl)cccc1Cl` [Example 61, 6-(2,6-dichlorophenyl)-2-((3-methyl-4-(4-(dimethylamino)piperidin-1-yl)phenyl)amino)-9-ethylimidazo[1,2-b]pyrimido[4,5-d]pyridazin-5(6H)-one]: the IC50 in the assay with LoVo cells (LoVo cells, 3 d, MTT) amounted to 352 nM; in the assay with NCI-H1299 cells (setting [1]), 126 nM. Moreover, the “Inh. (%) of Wee1 kinase” value on Wee1 kinase (h) (C 0.01 μm) came to 12%.
For the compound `Cc1cc(Nc2ncc3c(=O)n(-c4c(C)cccc4Cl)n4ccnc4c3n2)cc(C)c1N1CCN(C)CC1` [Example 17, 6-(2-chloro-6-methylphenyl)-2-((3,5-dimethyl-4-(4-methylpiperazin-1-yl)phenyl)amino)imidazo[1,2-b]pyrimido[4,5-d]pyridazin-5(6H)-one], the concentration for half-maximal inhibition (IC50) in the assay on LoVo cells (LoVo cells, 3 d, MTT) was 902 nM; with NCI-H1299 cells (setting [1]), 802 nM. Moreover, the “Inh. (%) of Wee1 kinase” value is reported as 5% at Wee1 kinase (h) (C 0.01 μm), 56% on Wee1 kinase (h) (C 0.1 μm) and 96% on Wee1 kinase (h) (C 1 μm).
On to `Cc1cc(Nc2ncc3c(=O)n(-c4c(Cl)cccc4Cl)n4ccnc4c3n2)cc(Cl)c1N1CCN(C)CC1` [Example 29, 6-(2,6-dichlorophenyl)-2-((3-chloro-5-methyl-4-(4-methylpiperazin-1-yl)phenyl)amino)imidazo[1,2-b]pyrimido[4,5-d]pyridazin-5(6H)-one], for which the 50% inhibitory concentration (IC50) in the assay with LoVo cells (LoVo) is 272 nM; in the assay on NCI-H1299 cells (NCI-H1299, 72 h), 400 nM. Moreover, the results for the “Inh. (%) of Wee1 kinase” value on Wee1 kinase (h) (C 0.01 μm), on Wee1 kinase (h) (C 0.1 μm) and at Wee1 kinase (h) (C 1 μm) were 21%, 65% and 93%, respectively.
On to `Cc1cc(Nc2ncc3c(=O)n(-c4c(C)cccc4Cl)n4ccnc4c3n2)cc(Cl)c1N1CCN(C)CC1` [Example 55, 6-(2-chloro-6-methylphenyl)-2-((3-chloro-5-methyl-4-(4-methylpiperazin-1-yl)phenyl)amino)imidazo[1,2-b]pyrimido[4,5-d]pyridazin-5(6H)-one], for which the half-maximal inhibitory concentration (IC50) in the assay on LoVo cells (LoVo cells, 3 d, MTT) worked out at 560 nM; in the assay with NCI-H1299 cells (setting [1]), 663 nM. The results for the “Inh. (%) of Wee1 kinase” value at Wee1 kinase (h) (C 0.01 μm), at Wee1 kinase (h) (C 0.1 μm) and at Wee1 kinase (h) (C 1 μm) were 0%, 46% and 89%, respectively.
In the case of `Cc1cc(Nc2ncc3c(=O)n(-c4c(F)cccc4Br)n4ccnc4c3n2)ccc1N1CCC(N(C)C)CC1` [Example 45, 6-(2-bromo-6-fluorophenyl)-2-((3-methyl-4-(4-(dimethylamino)piperidin-1-yl)phenyl)amino)imidazo[1,2-b]pyrimido[4,5-d]pyridazin-5(6H)-one], the IC50 in the assay with LoVo cells (LoVo cells, 3 d, MTT) was determined as 333 nM; in the assay on NCI-H1299 cells (setting [1]), 270 nM. Besides, the “Inh. (%) of Wee1 kinase” value on Wee1 kinase (h) (C 0.01 μm) is 12%.
As for `Cc1cn2c(n1)c1nc(Nc3cc(C)c(N4CCC(N(C)C)CC4)c(F)c3)ncc1c(=O)n2-c1c(Cl)cccc1Cl` [Example 59, 6-(2,6-dichlorophenyl)-2-((3-fluoro-5-methyl-4-(4-(dimethylamino)piperidin-1-yl)phenyl)amino)-9-methylimidazo[1,2-b]pyrimido[4,5-d]pyridazin-5(6H)-one], the IC50 in the assay with LoVo cells (LoVo cells, 3 d, MTT) was determined as 285 nM; in the assay on NCI-H1299 cells (setting [1]), 220 nM. Also, the “Inh. (%) of Wee1 kinase” value at Wee1 kinase (h) (C 0.01 μm) was 7%.
With `Cc1cc(Nc2ncc3c(=O)n(-c4c(Cl)cccc4Br)n4ccnc4c3n2)cc(F)c1N1CCC(N(C)C)CC1` [Example 50, 6-(2-bromo-6-chlorophenyl)-2-((3-fluoro-5-methyl-4-(4-(dimethylamino)piperidin-1-yl)phenyl)amino)imidazo[1,2-b]pyrimido[4,5-d]pyridazin-5(6H)-one], the 50% inhibitory concentration (IC50) with LoVo cells (LoVo cells, 3 d, MTT) came to 324 nM; in the assay on NCI-H1299 cells (setting [1]) it was 501 nM. The “Inh. (%) of Wee1 kinase” value at Wee1 kinase (h) (C 1 μm) stood at 94%.
For the compound `CN(C)C1CCN(c2ccc(Nc3ncc4c(=O)n(-c5c(Cl)cccc5Br)n5ccnc5c4n3)cc2Cl)CC1` [Example 48, 6-(2-bromo-6-chlorophenyl)-2-((3-chloro-4-(4-(dimethylamino)piperidin-1-yl)phenyl)amino)imidazo[1,2-b]pyrimido[4,5-d]pyridazin-5(6H)-one], the 50% inhibitory concentration (IC50) turned out to be 227 nM in the assay on LoVo cells (LoVo cells, 3 d, MTT) and 281 nM with NCI-H1299 cells (setting [1]). The “Inh. (%) of Wee1 kinase” value on Wee1 kinase (h) (C 0.01 μm) was determined as 23%; at Wee1 kinase (h) (C 1 μm) it was 93%.
